# Results as given in the supplement of paper PMC10307832.
# How the values were obtained:
# Experiment in all cases: relative viability (nuclei count vs DMSO), 5 days (fraction); higher = more cells survive
# [1] = compound: CC1=CC(=NN1)NC2=CC(=NC(=N2)/C=C/C3=CC=CC=C3)N4CCN(CC4)C + Cc1cc(Nc2cc(N3CCN(C)CC3)nc(Sc3ccc(NC(=O)C4CC4)cc3)n2)n[nH]1 [Tozasertib] (partner 0.1 µM)
# Outline: (§1)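 Relative viability was taken as the ratio of nuclei in treated wells to nuclei in vehicle wells. Lung cancer cell lines in 1536-well plates received compounds by pin tool one day after seeding, either one drug alone or a fixed anchor-drug dose plus five library-drug doses (not always all listed) in √10 steps. Nuclei were counted on 4× images after 5 days of treatment, and values are medians of duplicate plates.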
# [2] = compound: CC1=CC(=NN1)NC2=CC(=NC(=N2)/C=C/C3=CC=CC=C3)N4CCN(CC4)C + CCNC(=O)c1noc(-c2cc(C(C)C)c(O)cc2O)c1-c1ccc(CN2CCOCC2)cc1 [Luminespib] (partner 0.01 µM)
# Outline: as §1
# [3] = compound: CC1=CC(=NN1)NC2=CC(=NC(=N2)/C=C/C3=CC=CC=C3)N4CCN(CC4)C + NC(=O)Nc1cc(-c2cccc(F)c2)sc1C(=O)N[C@H]1CCCNC1 [AZD7762] (partner 0.2 µM)
# Outline: as §1
# Bortezomib + Luminespib = compound: CC(C)C[C@H](NC(=O)[C@H](Cc1ccccc1)NC(=O)c1cnccn1)B(O)O [Bortezomib] + CCNC(=O)c1noc(-c2cc(C(C)C)c(O)cc2O)c1-c1ccc(CN2CCOCC2)cc1 [Luminespib] (partner 0.01 µM)
# Outline: as §1
Cell Line,relative viability ([1]; first compound 0.08 µM),relative viability ([1]; first compound 0.253 µM),relative viability ([1]; first compound 0.8 µM),relative viability ([1]; first compound 2.53 µM),relative viability ([1]; first compound 8 µM),relative viability ([2]; first compound 0.08 µM),relative viability ([2]; first compound 0.253 µM),relative viability ([2]; first compound 0.8 µM),relative viability ([2]; first compound 2.53 µM),relative viability ([2]; first compound 8 µM),relative viability ([3]; first compound 0.08 µM),relative viability ([3]; first compound 0.253 µM),relative viability ([3]; first compound 0.8 µM),relative viability ([3]; first compound 2.53 µM),relative viability ([3]; first compound 8 µM),relative viability (Bortezomib + Luminespib; first compound 0.0002 µM),relative viability (Bortezomib + Luminespib; first compound 0.000632 µM),relative viability (Bortezomib + Luminespib; first compound 0.002 µM),relative viability (Bortezomib + Luminespib; first compound 0.006325 µM),relative viability (Bortezomib + Luminespib; first compound 0.02 µM)
NCI-H3122,0.373,0.408,0.408,0.33,0.231,0.0829,0.0907,0.096,0.0908,0.0887,0.963,0.943,1,0.944,0.408,0.103,0.0765,0.105,0.118,0.113
BEN,0.492,0.533,0.451,0.364,0.38,0.634,0.207,0.22,0.217,0.137,0.734,0.726,0.667,0.508,0.283,0.314,0.665,0.568,0.249,0.184
NCI-H1915,0.462,0.34,0.334,0.16,0.135,0.772,0.868,0.745,0.471,0.12,0.76,0.698,0.754,0.304,0.352,0.724,0.732,0.721,0.0571,0.0533
NCI-H460,0.371,0.394,0.313,0.0338,0.0166,0.0265,0.0399,0.0277,0.0233,0.0124,0.6,0.72,0.681,0.372,0.0422,0.0335,0.0348,0.033,0.0295,0.0196
NCI-H522,0.559,0.579,0.684,0.462,0.399,0.957,0.995,1.15,0.845,0.507,0.859,0.934,0.933,0.516,0.587,0.983,0.97,0.959,0.745,0.367
LCLC-103H,0.451,0.484,0.389,0.232,0.191,0.912,1.03,0.876,0.814,0.269,0.746,0.807,0.775,0.723,0.576,0.902,0.955,0.495,0.175,0.152
HCC-827,0.404,0.375,0.422,0.355,0.236,0.577,0.673,0.587,0.441,0.236,0.188,0.199,0.217,0.197,0.0973,0.533,0.588,0.415,0.152,0.122
